Experimental data published in US11274332B2, “Methods of administering 3,4-diaminopyridine” (SERB SA, priority 2011, dated 2022).

Biological target: T1, hKv1.7 (Homo sapiens, UniProt Q96RP8)
T1 construct: expressed in transfected cells; host or cells: CHO cells (transient transfection)
Assay: Whole cell patch clamp inhibition of hKv1.7 current in transiently transfected CHO cells (Example 5)
Assay type: cell-based
Conditions: hKv1.7, up to 3000 μM
Description: Chemicals used in solution preparation were purchased from Sigma-Aldrich (St. Louis, Mo.), unless otherwise noted, and were of ACS reagent grade purity or higher. Stock solutions of each test article (100.104 mM and 1.00 mM 3,4-DAP phosphate and 100.023 mM and 336.335 mM N-(4-aminopyridin-3-yl) acetamide HCl) were prepared in sterile water, stored refrigerated and used within one day. […] All test article solutions contained 3% sterile water. The test articles were prepared in sufficient volume to run the assay (typically 50 mL).
CHO cells, transiently transfected with hKv1.7, were cryopreserved in 90% FBS and 10% DMSO. Frozen vials of cells were thawed rapidly in a 37° C. water bath. Cells were transferred to a 15 mL conical tube, 10 mL of growth media (Ham's/F12-PS/10% FBS) was added, the suspension was gently mixed and the tube was centrifuged at approximately 250×g for 5 min. The medium was removed, the cell pellet was resuspended in 20 mL of medium, and cells were triturated to disperse cell clumps. For electrophysiology use, 2 mL of the cell suspension was plated in each 35 mm cell culture dish. Recording began 2-3 hours after plating once the cells settled out of the media and adhered to the bottom of the culture dish. […]
Cells were transferred to the recording chamber and superfused with vehicle control solution. […] Onset and steady state inhibition of hKv1.7 current due to the test article was measured using a pulse pattern with fixed amplitudes (depolarization: +10 mV amplitude, 300 ms duration) repeated at 10-second intervals from a holding potential of −80 mV. Current amplitude was measured at the end of the step to +10 mV. Current was monitored until a new steady state was achieved. […] The IC50 for sustained current was calculated for 3,4-DAP phosphate salt.
For 3,4-DAP phosphate salt, the concentration-response relationship was evaluated at seven concentrations (1, 10, 30, 100, 300, 1000 and 3000 μM) and for N-(4-aminopyridin-3-yl) acetamide HCl salt, the concentration-response relationship was evaluated at three concentrations (100, 1000 and 3000 μM).

T1 sequence (Q96RP8 whole entry): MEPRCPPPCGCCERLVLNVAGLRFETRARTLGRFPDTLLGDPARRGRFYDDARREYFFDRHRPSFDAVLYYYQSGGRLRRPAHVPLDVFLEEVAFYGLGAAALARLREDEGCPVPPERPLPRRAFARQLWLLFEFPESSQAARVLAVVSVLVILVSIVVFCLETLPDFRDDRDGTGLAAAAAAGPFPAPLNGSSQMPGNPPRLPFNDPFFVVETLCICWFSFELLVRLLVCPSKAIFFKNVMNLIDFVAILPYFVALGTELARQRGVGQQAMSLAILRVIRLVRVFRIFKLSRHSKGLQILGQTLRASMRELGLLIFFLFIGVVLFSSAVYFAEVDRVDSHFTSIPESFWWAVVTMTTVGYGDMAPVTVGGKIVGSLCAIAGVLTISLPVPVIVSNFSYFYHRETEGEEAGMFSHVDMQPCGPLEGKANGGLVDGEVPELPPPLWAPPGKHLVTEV

In the case of CC(=O)Nc1cnccc1N [3-N-acetyl amifampridine, N-(4-aminopyridin-3-yl)acetamide], the “activity on K+ channel” value is reported as “inactive” and the “activity on K+ channel” value (listed as N-acetyl metabolite) is reported as “not active”.
